The values that follow come from patent US12454518B2, “Substituted N-(2-(2,6-dioxopiperidin-3-yl)-1,3-dioxoisoindolin-5-yl)arylsulfonamide analogs as modulators of cereblon protein” (ST. JUDE CHILDREN'S RESEARCH HOSPITAL, INC., priority 2020, dated 2025).

Data set [1] has as its system MV4-11 cells. The data set is described as follows: MV-4-11 cell viability assay. The settings on record: for EC50: Homo sapiens.
Experimental: MV-4-11 cell line was purchased from the American Type Culture Collection (ATCC, Manassas, VA). The cells were cultured according to recommendations in IMDM cell culture media (ATCC). […] Compounds were transferred to the assay plate from a dose-response plate using a Pintool on a Biomek FXP Laboratory Automation Workstation (Beckman Coulter). […] Luminescence was measured on an Envision plate reader (Perkin-Elmer).
After overnight incubation at 37° C. in a humidified 5% CO2 incubator, cells were treated with compounds in dose-response format using a Pintool on a Biomek FX^P Laboratory Automation Workstation (Beckman Coulter). […] Luminescence signal was measured using an Envision plate reader (Perkin-Elmer).
The target in another data set is T1, GSPT1 (Homo sapiens, UniProt P15170+Q96SW2).
T1 construct: endogenous in cells; host or cells: MV4-11
T1 sequence (P15170 whole entry): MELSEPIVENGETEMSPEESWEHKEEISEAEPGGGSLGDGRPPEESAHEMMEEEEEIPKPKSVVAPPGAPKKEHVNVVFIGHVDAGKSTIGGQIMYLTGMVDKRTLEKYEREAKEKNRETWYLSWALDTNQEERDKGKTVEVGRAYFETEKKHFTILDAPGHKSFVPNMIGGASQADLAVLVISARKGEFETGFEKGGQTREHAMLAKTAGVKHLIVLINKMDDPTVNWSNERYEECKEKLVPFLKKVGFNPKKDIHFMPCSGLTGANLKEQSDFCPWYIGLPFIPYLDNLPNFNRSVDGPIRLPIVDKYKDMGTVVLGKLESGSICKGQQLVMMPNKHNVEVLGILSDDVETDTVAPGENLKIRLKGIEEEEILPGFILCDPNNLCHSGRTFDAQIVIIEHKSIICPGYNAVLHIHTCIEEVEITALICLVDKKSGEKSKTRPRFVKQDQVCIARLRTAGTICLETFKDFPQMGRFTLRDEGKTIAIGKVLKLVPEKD
T1 sequence (Q96SW2 whole entry): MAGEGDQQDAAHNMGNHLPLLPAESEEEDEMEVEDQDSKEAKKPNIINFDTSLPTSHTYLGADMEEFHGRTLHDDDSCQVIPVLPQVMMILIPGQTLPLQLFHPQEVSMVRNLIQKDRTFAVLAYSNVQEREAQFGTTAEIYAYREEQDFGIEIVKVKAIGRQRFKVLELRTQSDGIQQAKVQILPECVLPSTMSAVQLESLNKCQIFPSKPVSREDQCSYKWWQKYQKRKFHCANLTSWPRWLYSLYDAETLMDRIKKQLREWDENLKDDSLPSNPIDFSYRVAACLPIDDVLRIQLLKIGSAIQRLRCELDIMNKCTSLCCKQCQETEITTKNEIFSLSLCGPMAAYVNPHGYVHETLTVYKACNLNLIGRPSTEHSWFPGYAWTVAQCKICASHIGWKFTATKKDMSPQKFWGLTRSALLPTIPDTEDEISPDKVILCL
T1 sequence (Q16531 2-1140 partner limits assumed): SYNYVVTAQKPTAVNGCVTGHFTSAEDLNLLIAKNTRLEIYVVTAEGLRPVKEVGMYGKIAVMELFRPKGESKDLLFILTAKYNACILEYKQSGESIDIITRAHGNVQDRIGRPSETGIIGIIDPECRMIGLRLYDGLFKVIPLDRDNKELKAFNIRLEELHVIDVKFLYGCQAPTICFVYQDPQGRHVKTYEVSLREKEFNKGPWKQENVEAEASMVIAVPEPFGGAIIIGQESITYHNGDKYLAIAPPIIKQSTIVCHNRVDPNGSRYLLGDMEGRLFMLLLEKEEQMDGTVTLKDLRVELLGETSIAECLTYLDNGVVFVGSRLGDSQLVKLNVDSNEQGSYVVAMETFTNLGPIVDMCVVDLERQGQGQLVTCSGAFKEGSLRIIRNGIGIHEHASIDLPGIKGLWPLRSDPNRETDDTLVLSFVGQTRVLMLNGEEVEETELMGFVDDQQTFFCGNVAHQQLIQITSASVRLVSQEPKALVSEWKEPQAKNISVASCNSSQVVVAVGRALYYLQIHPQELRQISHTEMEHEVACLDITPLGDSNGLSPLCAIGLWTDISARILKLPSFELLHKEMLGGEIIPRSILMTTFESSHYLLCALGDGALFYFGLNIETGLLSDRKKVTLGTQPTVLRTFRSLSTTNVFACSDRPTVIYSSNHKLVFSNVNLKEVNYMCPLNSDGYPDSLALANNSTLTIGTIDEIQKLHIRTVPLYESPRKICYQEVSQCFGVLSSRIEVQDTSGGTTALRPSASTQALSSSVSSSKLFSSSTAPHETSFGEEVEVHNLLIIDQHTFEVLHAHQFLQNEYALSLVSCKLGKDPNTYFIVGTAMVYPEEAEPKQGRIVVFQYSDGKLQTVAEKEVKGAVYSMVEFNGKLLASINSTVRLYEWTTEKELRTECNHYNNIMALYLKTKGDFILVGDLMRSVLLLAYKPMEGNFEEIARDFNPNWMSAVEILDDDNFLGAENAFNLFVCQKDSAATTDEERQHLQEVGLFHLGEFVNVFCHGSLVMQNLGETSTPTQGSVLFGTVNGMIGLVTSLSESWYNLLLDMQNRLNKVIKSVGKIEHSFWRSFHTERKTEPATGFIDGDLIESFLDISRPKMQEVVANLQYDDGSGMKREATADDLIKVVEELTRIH
The data set is described as follows: Immunoblot analysis of GSPT1 degradation in MV4-11 cells. Format: cell-based. Details: Dmax: dose or concentration left out as unconfirmed. The protocol: (§1) MV4-11 cells were seeded in 6-well plates (1×10^6 cells per well). After overnight incubation, the cells were treated with indicated concentrations for specific timepoints. […] After blocking the membrane with LI-COR TBS blocking buffer and incubation in primary antibody overnight, the corresponding protein signals were detected using IRDye secondary antibodies and Odyssey Imaging System. Image Studio Lite Ver 5.2 was used for blot quantification. […] IRDye®, 800CW Goat anti-Mouse IgG Secondary Antibody and IRDye® 680RD Goat anti-Rabbit IgG Secondary Antibody were used as secondary antibodies.
Background: In western blotting, separated proteins are transferred to a membrane and probed.

A further data set addresses T2, IKZF1 (Homo sapiens, UniProt Q13422).
T2 construct: endogenous in cells; host or cells: MV4-11
The data set is described as follows: Immunoblot analysis of IKZF1 degradation in MV4-11 cells. It is filed as cell-based. The settings on record: for IKZF1 degradation at 4 hours: any of the concentrations tested. Here is the method:
as §1

The nature of another data set: Aqueous solubility assay. It is filed as physicochemical. The settings on record: pH = 7.4, in triplicate. Here is the method: The storage plate was sealed and incubated at RT for 18 h. The suspension was then filtered through a 96-well filter plate (pION Inc., Woburn, MA). 75 μL of filtrate was mixed with 75 μL 1-propanol to make the sample plate, and the UV spectrum of the sample plate was read. Calculations were carried out with μSOL Evolution software based on the area under the curve (AUC) of the UV spectrum of the sample and reference plates. All compounds were tested in triplicate.

Data set [2] has as its system MV4-11 cells. The data set is described as follows: Lenalidomide competition assay. It is filed as cell-based, human. The note with it: lenalidomide 10 μM, 3 days.
Experimental: Compounds were screened in human cancer cell lines and each cell line was cultured in the complete medium recommended by the vendor and seeded in Corning 8804BC white 384-well assay plates at density of 1,000, 1,000, 1,000, 1,500 and 7,500 cells per well, for MV4-11, HD-MB03, MB004, MB002 and MHH-CALL4 cells respectively. After overnight incubation at 37° C. in a humidified 5% CO2 incubator, cells were treated with compounds in dose-response format using a Pintool on a Biomek FX^P Laboratory Automation Workstation (Beckman Coulter). […] After 72 h incubation, cell proliferation was assessed using Cell Titer-Glo (CTG) luminescent cell viability assay (Promega) according to the manufacturer's instruction. Luminescence signal was measured using an Envision plate reader (Perkin-Elmer).
Data set [3] relates to caspase 3/7 activity in Mv4:11 cells. The data set is described as follows: Caspase 3/7 activity assay. Format: cell-based, human. The settings on record: Caspase-Glo, time points 4, 8 and 24 hours; 10 and 100 nM.
Another data set concerns the target T3, 6XHis-CRBN-DDB1 protein (Homo sapiens, UniProt Q96SW2).
T3 construct: 6XHis (N)
The data set is described as follows: CRBN fluorescence polarization assay. It is filed as binding. The settings on record: class symbols; read-out: CRBN FP IC50. Here is the method: 6XHis-CRBN-DDB1 protein (200 nM) and Cy5-O-Len probe (30 nM) were combined in 20 mM HEPES pH 7, 150 mM NaCl, 0.005% Tween-20 assay buffer. […] The plates were incubated in the dark for 1 hour at room temperature and then read on an Envision plate reader (PerkinElmer, Massachusetts, USA).
(Polarisation of emitted light reports the rotation of a fluorescent probe.)

In data set [4] the target is T4, GSPT1 HiBiT tag protein in HEK293 cells (Homo sapiens, UniProt P15170+Q96SW2).
T4 construct: HEK293_hGSPT1_HiBiT tagged cells were generated using CRISPR-Cas12a technology; endogenous in cells; host or cells: HEK293 (genome-edited at the GSPT1 locus, HiBiT knock-in)
T4 sequence (P15170 whole entry): as the sequence (P15170 whole entry) above
T4 sequence (Q96SW2 whole entry): as the sequence (Q96SW2 whole entry) above
T4 sequence (Q16531 2-1140 partner limits assumed): as the sequence (Q16531 2-1140 partner limits assumed) above
The data set is described as follows: hGSPT1 HiBiT assay. Format: cell-based. The note with it: 4 hrs incubation, class symbols, read-out: GSPT1 HiBit EC50. The protocol:
hGSPT1 HiBiT cell line. HEK293_hGSPT1_HiBiT tagged cells were generated using CRISPR-Cas12a technology. Briefly, ˜400,000 HEK293 cells were transiently co-transfecting with precomplexed ribonuclear proteins (RNPs) consisting of 80 pmol of crRNA (IDT), 62 pmol of Cas12a protein (IDT), 3 ug of ssODN donor (IDT; AItR™ modifications), 78 pmol of electroporation enhancer (IDT), and 200 ng of pMaxGFP(Lonza). The transfection was performed via nucleofection (Lonza, 4D-Nucleofector™ X-unit) using solution P3 and program CM-130 in a small (20 ul) cuvette according to the manufacturer's recommended protocol. Five days post-nucleofection, cells were single cell sorted for GFP+(transfected) cells by FACs in 96-well plates and clonally selected. Clones were screened and verified for the desired modification via targeted deep sequencing using gene specific primers with partial Illumina adapter overhangs as previously described.^58 In brief, clonal cell pellets were harvested, lysed and used to generate gene specific amplicons with partial Illumina adapters in PCR #1. Amplicons were indexed in PCR #2 and pooled with other targeted amplicons for other loci to create sequence diversity. Additionally, 10% PhiX Sequencing Control V3 (Illumina) was added to the pooled amplicon library prior to running the sample on an Miseq Sequencer System (Illumina) to generate paired 2×250 bp reads. Samples were demultiplexed using the index sequences, fastq files were generated, and NGS analysis was performed using CRIS.py.^59 Final clones were authenticated using the PowerPlex® Fusion System (Promega) performed at the Hartwell Center (St. Jude) and tested negative for mycoplasma by the MycoAlert™Plus Mycoplasma Detection Kit (Lonza). Editing construct sequences and screening primers are listed below in Table 4.
hGSPT1 HiBiT assay. […] After 4 hrs incubation, the level of GSPT1 HiBiT tag protein was evaluated using Nano-Glo® HiBiT Lytic Detection System (Promega) according to the manufacturer's instruction.
(The HiBiT peptide binds its large partner to form an active luciferase.)

The nature of data set [5]: Pharmacokinetics study in CD1 mice. The note with it: 3 mg/kg IV. It is filed as in vivo. Here is the method:
Healthy female CD1 mice (8-12 weeks old) weighing between 20 to 30 g were procured from Global, India. Three mice were housed in each cage. Temperature and humidity were maintained at 22±3° C. and 30-70%, respectively and illumination was controlled to give a sequence of 12 hr light and 12 hr dark cycle. Temperature and humidity were recorded by auto-controlled data logger system. All the animals were provided laboratory rodent diet (Envigo Research private Ltd, Hyderabad). Reverse osmosis water treated with ultraviolet light was provided ad libitum. Formulation vehicle: 5% v/v NMP: 5% v/v Solute HS-15 and 90% v/v normal saline. […] The dosing volume for intravenous was 5 mL/kg and for oral administration 10 mL/kg. Blood samples (approximately 60 μL) were collected under light isoflurane anesthesia (Surgivet®) from retro orbital plexus from a set of three mice at 0.08 (for IV only), 0.25, 0.5, 1, 2, 4, 6 (for PO only), 8, 12 and 24 hr. Immediately after blood collection, plasma was harvested by centrifugation at 4000 rpm, 10 min at […] and samples were stored at −70±10° C. until bioanalysis. […] Non-Compartmental-Analysis tool of Phoenix WinNonlin® (Version 8.0) was used to assess the pharmacokinetic parameters. Peak plasma concentration (Cmax) and time for the peak plasma concentration (Tmax) were the observed values. The areas under the concentration time curve (AUClast and AUCinf) were calculated by linear trapezoidal rule. The terminal elimination rate constant, ke was determined by regression analysis of the linear terminal portion of the log plasma concentration-time curve. Clearance was estimated as Dose/AUCinf and Vss as CL*MRT. The oral bioavailability was calculated as ratio of dose normalized AUC of oral and intravenous group multiplied by 100.

The mark [6] stands for this setting: MV4-11, 72 h, read-out: MV4-11 EC50.
Where [7] appears, read: MV4-11, read-out: antiproliferative activity in MV4-11, EC50.

Like-named read-outs stand apart in the source and are kept apart here.

T3 sequence (Q96SW2 whole entry): as the sequence (Q96SW2 whole entry) above
T3 sequence (Q16531 whole entry partner): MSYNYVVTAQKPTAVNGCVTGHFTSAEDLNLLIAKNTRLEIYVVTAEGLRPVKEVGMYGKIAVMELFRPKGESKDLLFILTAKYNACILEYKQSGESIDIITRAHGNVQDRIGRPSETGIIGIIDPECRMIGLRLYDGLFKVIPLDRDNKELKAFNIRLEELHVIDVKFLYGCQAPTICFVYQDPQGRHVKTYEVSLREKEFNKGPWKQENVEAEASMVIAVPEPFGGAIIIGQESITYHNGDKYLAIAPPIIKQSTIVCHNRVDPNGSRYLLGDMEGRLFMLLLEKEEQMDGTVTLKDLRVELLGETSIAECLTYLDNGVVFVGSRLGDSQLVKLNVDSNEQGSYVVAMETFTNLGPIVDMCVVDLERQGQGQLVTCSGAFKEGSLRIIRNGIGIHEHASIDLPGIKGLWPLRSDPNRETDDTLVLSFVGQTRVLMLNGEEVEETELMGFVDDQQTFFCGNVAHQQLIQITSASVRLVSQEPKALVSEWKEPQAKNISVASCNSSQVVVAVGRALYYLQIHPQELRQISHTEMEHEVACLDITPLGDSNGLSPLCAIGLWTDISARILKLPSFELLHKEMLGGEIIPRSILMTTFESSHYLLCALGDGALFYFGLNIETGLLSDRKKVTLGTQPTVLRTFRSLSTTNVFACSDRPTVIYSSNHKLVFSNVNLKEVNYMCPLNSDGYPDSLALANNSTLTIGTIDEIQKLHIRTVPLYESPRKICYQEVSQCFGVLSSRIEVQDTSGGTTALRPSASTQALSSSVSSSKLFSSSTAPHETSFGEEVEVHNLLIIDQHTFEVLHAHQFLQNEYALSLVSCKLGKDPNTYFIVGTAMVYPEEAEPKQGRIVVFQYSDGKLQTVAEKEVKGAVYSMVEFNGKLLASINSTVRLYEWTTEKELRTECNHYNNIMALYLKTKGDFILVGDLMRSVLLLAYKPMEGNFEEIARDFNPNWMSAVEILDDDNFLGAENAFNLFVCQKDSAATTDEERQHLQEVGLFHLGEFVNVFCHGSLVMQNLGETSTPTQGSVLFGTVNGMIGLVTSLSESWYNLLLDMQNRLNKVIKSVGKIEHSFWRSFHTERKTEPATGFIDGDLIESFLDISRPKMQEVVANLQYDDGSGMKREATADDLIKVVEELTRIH
T2 sequence (Q96SW2 whole entry partner): as the sequence (Q96SW2 whole entry) above
T2 sequence (Q16531 2-1140 partner limits assumed): as the sequence (Q16531 2-1140 partner limits assumed) above
T2 sequence (Q13422 whole entry): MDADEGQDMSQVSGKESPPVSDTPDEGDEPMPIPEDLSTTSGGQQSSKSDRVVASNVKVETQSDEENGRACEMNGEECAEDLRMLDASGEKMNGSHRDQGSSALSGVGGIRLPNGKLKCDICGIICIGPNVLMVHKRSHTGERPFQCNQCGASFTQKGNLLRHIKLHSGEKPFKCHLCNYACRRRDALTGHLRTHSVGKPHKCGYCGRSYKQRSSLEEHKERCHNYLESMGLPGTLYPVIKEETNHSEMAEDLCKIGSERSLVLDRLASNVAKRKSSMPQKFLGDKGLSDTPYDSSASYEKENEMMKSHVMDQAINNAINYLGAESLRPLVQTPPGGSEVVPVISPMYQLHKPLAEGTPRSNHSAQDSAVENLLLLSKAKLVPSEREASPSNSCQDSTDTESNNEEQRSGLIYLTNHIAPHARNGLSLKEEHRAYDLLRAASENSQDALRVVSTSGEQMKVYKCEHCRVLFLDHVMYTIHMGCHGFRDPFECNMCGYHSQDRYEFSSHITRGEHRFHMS

A word on the EC50: it is the concentration giving half of the maximal effect. For orientation: Dmax means the largest share of the target that was removed. For `Cc1c(Cl)cccc1S(=O)(=O)Nc1ccc2c(c1)C(=O)N(C1CCC(=O)NC1=O)C2=O` (stereo not drawn) [compound 5, 3-chloro-N-(2-(2,6-dioxopiperidin-3-yl)-1,3-dioxoisoindolin-5-yl)-2-methylbenzenesulfonamide], in the data set on MV4-11 cells [1] (setting [6]), the concentration giving a half-maximal response (EC50) came to 52 nM. For the same compound, the Dmax on GSPT1 (MV4-11, read-out: GSPT1 maximum degradation efficacy, Dmax) is 60%. Besides, the “IKZF1 degradation at 4 hours” value on IKZF1 is listed as “did not significantly degrade IKZF1”. The “Sol. (aqueous solubility)” value in the data set “Aqueous solubility assay” came to 64 µM. Further, the “antiproliferative effect in presence of lenalidomide” value with MV4-11 cells [2] is “abrogating the antiproliferative effects”. Besides, the “time point at which caspase activation was observed” value in [3] is 24 h.
What is called IC50 is the concentration needed to halve the response being measured. Take `Cc1ccc(CS(=O)(=O)Nc2ccc3c(c2)C(=O)N(C2CCC(=O)NC2=O)C3=O)cc1` (stereo not drawn) [compound 58, N-(2-(2,6-dioxopiperidin-3-yl)-1,3-dioxoisoindolin-5-yl)-1-(p-tolyl)methanesulfonamide]: the IC50 on 6XHis-CRBN-DDB1 protein was under 1000 nM.
As for `O=C1CCC(N2C(=O)c3ccc(NS(=O)(=O)c4cccc(OC(F)(F)F)c4)cc3C2=O)C(=O)N1` (stereo not drawn) [compound 2, N-(2-(2,6-dioxopiperidin-3-yl)-1,3-dioxoisoindolin-5-yl)-3-(trifluoromethoxy)benzenesulfonamide], the EC50 in the data set with MV4-11 cells [1] (setting [6]) was over 10000 nM. Moreover, in the data set with MV4-11 cells [1] (setting [7]), the concentration for a half-maximal effect (EC50) was found to be 52 nM. The “effects on the protein levels of GSPT1 by immunoblotting” value at GSPT1 (MV4-11 cells) is on record as “no effects”. Besides, at IKZF1, the “effects on the protein levels of IKZF1 by immunoblotting” value was “no effects” and the “IKZF1 protein abundance after 24 hours” value is “dose-dependent decrease”. The “Sol. (aqueous solubility)” value in “Aqueous solubility assay” amounted to 64 µM.
Regarding `O=C1CCC(N2C(=O)c3ccc(NS(=O)(=O)c4cccc(Cl)c4F)cc3C2=O)C(=O)N1` (stereo not drawn) [compound 61, 3-chloro-N-(2-(2,6-dioxopiperidin-3-yl)-1,3-dioxoisoindolin-5-yl)-2-fluorobenzenesulfonamide], at 6XHis-CRBN-DDB1 protein, the IC50 is under 1000 nM.
On the same count and under the same terms, in the case of `Cc1noc(C)c1S(=O)(=O)Nc1ccc2c(c1)C(=O)N(C1CCC(=O)NC1=O)C2=O` (stereo not drawn) [compound 60, N-(2-(2,6-dioxopiperidin-3-yl)-1,3-dioxoisoindolin-5-yl)-3,5-dimethylisoxazole-4-sulfonamide] it was under 1000 nM.
Turning to `O=C1CCC(N2Cc3cc(CNC(=O)C(F)(F)c4ccc(Cl)cc4)ccc3C2=O)C(=O)N1` (stereo not drawn) [CC90009, reference compound], in the data set “Aqueous solubility assay”, the “Sol. (aqueous solubility)” value was determined as 77 µM.
Regarding `O=C1CCC(N2Cc3cc(CNC(=O)C(F)(F)c4ccc(Cl)cc4)ccc3C2=O)C(=O)N1` (stereo not drawn) [CC-90009, reference compound], the Dmax at 10 µM at GSPT1 (MV4-11 cells, 4 h, at 10 μM, read-out: GSPT1 maximum degradation efficacy, Dmax) was 74%. Also, the Dmax on GSPT1 (MV4-11 cells, 24 h, read-out: GSPT1 Dmax) is over 90%; on IKZF1 (24 h) it was over 90%.
Consider `O=C1CCC(N2Cc3cc(NS(=O)(=O)c4ccccc4C(F)(F)F)ccc3C2=O)C(=O)N1` (stereo not drawn) [compound 44, N-(2-(2,6-dioxopiperidin-3-yl)-1-oxoisoindolin-5-yl)-2-(trifluoromethyl)benzenesulfonamide], for which, in [4], the DC50 is over 10000 nM.
As usually defined, the clearance is a measure of how efficiently the substance is removed, as volume per time. With `O=C1CCC(N2C(=O)c3ccc(NS(=O)(=O)c4ccccc4OC(F)(F)F)cc3C2=O)C(=O)N1` (stereo not drawn) [compound 1, N-(2-(2,6-dioxopiperidin-3-yl)-1,3-dioxoisoindolin-5-yl)-2-(trifluoromethoxy)benzenesulfonamide], the EC50 in the data set on MV4-11 cells [1] (setting [6]) came to 1.5 nM. Besides, in the data set with MV4-11 cells [1] (setting [7]), the 50% effective concentration (EC50) is 1.5 nM. Besides, in [5], the clearance came out at 0.46 mL/min/kg, the “terminal elimination half-life (t1/2)” value was found to be 3.4 h and the volume of distribution came out at 0.15 L/kg. On IKZF1, the “IKZF1 degradation at 4 hours” value is “did not significantly degrade IKZF1” and the “IKZF1 protein abundance after 24 hours” value is listed as “dose-dependent decrease”. For the same compound, in “Aqueous solubility assay”, the “Sol. (aqueous solubility)” value amounted to 67 µM. Further, in the data set on MV4-11 cells [2], the “antiproliferative effect in presence of lenalidomide” value is “abrogating the antiproliferative effects”. The “time point at which caspase activation was observed” value in [3] turned out to be 8 h.
Turning to `O=C1CCC(N2Cc3cc(NS(=O)(=O)c4cccc(OC(F)(F)F)c4)ccc3C2=O)C(=O)N1` (stereo not drawn) [compound 43, N-(2-(2,6-dioxopiperidin-3-yl)-1-oxoisoindolin-5-yl)-3-(trifluoromethoxy)benzenesulfonamide], the DC50 in [4] was under 1000 nM.
For the compound `O=C1CCC(N2Cc3cc(NS(=O)(=O)c4ccccc4)ccc3C2=O)C(=O)N1` (stereo not drawn) [compound 38, N-(2-(2,6-dioxopiperidin-3-yl)-1-oxoisoindolin-5-yl)benzenesulfonamide], the DC50 in [4] is over 10000 nM.
On to `O=C1CCC(N2C(=O)c3ccc(NS(=O)(=O)c4ccc(F)cc4Cl)cc3C2=O)C(=O)N1` (stereo not drawn) [compound 67, 2-chloro-N-(2-(2,6-dioxopiperidin-3-yl)-1,3-dioxoisoindolin-5-yl)-4-fluorobenzenesulfonamide], for which, in data set [4], the DC50 was over 10000 nM. At 6XHis-CRBN-DDB1 protein, the IC50 is under 1000 nM.
For `O=C1CCC(N2C(=O)c3ccc(NS(=O)(=O)c4ccccc4)cc3C2=O)C(=O)N1` (stereo not drawn) [compound 20, N-(2-(2,6-dioxopiperidin-3-yl)-1,3-dioxoisoindolin-5-yl)benzenesulfonamide], the EC50 with MV4-11 cells [1] (setting [6]) was over 10000 nM. Further, the “cell potency in MV4-11 cells (in words)” value with MV4-11 cells [1] (MV4-11 cells) is “inactive”. Moreover, the “Sol. (aqueous solubility)” value in the data set “Aqueous solubility assay” amounted to 71 µM.
Take `Cc1ccc(S(=O)(=O)Nc2ccc3c(c2)C(=O)N(C2CCC(=O)NC2=O)C3=O)cc1Cl` (stereo not drawn) [compound 7, 3-chloro-N-(2-(2,6-dioxopiperidin-3-yl)-1,3-dioxoisoindolin-5-yl)-4-methylbenzenesulfonamide]: the EC50 in the data set on MV4-11 cells [1] (setting [6]) was over 10000 nM.
`CC(C)(C)c1ccc(S(=O)(=O)Nc2ccc3c(c2)CN(C2CCC(=O)NC2=O)C3=O)cc1` (stereo not drawn) [compound 46]: the DC50 in data set [4] was under 1000 nM.
